What was measured:
[1] = biological target: Phosphatidylinositol 4,5-bisphosphate 3-kinase catalytic subunit beta isoform (Homo sapiens, UniProt P42338); assay: Inhibition of p110beta
[2] = biological target: Phosphatidylinositol 4,5-bisphosphate 3-kinase catalytic subunit alpha isoform (Homo sapiens, UniProt P42336); assay: Inhibition of p110alpha
[3] = biological target: Phosphatidylinositol 4,5-bisphosphate 3-kinase catalytic subunit gamma isoform (Homo sapiens, UniProt P48736); assay: Inhibition of p110gamma
Phosphatidylinositol 4,5-bisphosphate 3-kinase catalytic subunit gamma isoform, sequence (P48736 whole entry, canonical isoform): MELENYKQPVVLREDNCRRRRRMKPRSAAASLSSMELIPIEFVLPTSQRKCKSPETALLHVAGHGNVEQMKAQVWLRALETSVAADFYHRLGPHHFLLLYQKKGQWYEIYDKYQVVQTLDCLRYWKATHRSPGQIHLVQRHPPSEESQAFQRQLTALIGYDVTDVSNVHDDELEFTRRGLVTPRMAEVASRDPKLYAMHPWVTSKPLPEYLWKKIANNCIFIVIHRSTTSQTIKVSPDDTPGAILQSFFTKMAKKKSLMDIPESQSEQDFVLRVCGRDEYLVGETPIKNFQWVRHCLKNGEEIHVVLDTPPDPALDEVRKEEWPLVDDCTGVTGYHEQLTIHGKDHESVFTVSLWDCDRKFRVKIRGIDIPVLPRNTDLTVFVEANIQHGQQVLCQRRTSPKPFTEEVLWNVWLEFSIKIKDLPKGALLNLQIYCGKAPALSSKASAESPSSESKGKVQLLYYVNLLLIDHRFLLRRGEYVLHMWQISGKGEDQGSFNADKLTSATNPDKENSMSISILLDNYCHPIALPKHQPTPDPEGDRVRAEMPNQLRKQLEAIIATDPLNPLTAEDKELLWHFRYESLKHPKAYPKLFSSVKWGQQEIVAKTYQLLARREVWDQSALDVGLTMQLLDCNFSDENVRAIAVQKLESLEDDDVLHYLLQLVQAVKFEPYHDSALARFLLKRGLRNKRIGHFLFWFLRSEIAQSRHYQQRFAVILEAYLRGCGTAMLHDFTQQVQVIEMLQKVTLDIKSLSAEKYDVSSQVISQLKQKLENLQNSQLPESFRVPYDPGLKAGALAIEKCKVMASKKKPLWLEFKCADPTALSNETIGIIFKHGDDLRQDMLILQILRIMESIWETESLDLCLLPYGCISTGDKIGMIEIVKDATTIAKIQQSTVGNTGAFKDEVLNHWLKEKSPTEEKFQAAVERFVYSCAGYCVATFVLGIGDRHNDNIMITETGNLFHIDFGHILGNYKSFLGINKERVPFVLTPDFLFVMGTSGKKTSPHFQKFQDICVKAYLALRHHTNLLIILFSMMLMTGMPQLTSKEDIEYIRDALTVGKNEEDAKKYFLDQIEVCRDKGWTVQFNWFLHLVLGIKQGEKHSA

Phosphatidylinositol 4,5-bisphosphate 3-kinase catalytic subunit alpha isoform, sequence (P42336 whole entry, canonical isoform): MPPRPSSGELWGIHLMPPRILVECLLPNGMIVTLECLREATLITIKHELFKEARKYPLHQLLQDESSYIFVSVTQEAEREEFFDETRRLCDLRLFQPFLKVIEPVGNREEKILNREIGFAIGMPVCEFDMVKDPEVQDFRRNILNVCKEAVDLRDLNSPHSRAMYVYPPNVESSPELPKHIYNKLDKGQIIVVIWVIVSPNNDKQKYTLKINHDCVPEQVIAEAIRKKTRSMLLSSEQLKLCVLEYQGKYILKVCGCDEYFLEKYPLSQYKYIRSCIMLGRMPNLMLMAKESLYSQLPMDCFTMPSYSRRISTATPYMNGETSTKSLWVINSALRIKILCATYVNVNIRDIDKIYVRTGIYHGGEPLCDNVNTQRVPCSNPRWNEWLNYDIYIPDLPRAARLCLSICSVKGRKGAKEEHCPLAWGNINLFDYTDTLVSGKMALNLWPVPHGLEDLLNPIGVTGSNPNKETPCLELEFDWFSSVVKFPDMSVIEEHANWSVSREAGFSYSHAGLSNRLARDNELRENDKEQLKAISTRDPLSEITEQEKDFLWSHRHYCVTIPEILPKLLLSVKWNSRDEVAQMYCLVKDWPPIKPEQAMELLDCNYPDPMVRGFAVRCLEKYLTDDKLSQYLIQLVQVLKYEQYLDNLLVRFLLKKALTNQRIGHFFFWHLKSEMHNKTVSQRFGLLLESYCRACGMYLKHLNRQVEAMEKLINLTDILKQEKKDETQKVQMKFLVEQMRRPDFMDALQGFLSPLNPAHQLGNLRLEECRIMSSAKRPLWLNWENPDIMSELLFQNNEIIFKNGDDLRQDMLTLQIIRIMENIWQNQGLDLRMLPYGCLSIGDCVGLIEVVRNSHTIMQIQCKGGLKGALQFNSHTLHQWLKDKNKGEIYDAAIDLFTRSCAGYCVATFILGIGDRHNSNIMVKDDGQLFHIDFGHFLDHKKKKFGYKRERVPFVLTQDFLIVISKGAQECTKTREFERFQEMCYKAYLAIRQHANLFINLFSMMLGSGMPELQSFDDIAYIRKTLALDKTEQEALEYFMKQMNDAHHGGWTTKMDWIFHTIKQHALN
Phosphatidylinositol 4,5-bisphosphate 3-kinase catalytic subunit beta isoform, sequence (P42338 whole entry, canonical isoform): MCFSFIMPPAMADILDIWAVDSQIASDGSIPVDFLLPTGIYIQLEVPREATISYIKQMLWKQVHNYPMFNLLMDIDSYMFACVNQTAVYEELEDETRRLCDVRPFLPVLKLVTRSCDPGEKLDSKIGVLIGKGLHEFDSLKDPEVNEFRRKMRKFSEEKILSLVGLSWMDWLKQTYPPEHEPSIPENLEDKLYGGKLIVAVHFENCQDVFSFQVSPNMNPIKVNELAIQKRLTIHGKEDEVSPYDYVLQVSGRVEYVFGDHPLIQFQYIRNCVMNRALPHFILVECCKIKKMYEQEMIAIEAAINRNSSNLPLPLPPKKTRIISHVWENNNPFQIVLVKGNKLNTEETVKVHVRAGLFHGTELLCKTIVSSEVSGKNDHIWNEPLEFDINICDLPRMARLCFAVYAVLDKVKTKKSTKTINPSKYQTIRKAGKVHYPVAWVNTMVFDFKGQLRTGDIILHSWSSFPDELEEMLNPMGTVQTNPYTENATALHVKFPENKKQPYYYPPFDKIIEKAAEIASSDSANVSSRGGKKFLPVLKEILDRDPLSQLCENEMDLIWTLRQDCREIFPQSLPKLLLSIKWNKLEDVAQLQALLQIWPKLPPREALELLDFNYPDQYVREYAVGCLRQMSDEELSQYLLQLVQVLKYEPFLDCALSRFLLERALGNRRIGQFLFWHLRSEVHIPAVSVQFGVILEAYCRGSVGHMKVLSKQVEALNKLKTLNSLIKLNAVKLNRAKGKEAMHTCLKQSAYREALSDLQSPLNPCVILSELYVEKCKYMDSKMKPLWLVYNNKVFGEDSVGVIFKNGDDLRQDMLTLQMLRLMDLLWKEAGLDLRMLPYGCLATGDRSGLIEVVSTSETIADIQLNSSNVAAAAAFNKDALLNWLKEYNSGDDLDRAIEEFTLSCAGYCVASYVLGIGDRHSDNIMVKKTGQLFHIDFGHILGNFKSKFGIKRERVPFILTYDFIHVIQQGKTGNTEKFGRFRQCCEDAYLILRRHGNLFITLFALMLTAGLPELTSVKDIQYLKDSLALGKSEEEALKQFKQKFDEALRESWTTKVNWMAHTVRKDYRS

SMILES	IC50 [1] [nM]	IC50 [2] [nM]	IC50 [3] [nM]
CC(C)n1nc(C#Cc2cccc(O)c2)c2c(N)ncnc21	316	34	69
CN1CCN(c2nc3ccccc3cc2Cn2nc(-c3ccc4nc(N)sc4c3)c3c(N)ncnc32)CC1	9	137	4
CC(C)n1nc(C#Cc2cccnc2)c2c(N)ncnc21	664	53	113
COc1ccccc1-n1c(SCC(=O)Nc2ccc3nccnc3c2)nc2c(c1=O)CCCC2	4230	3440	20000
COc1cc(Nc2nc3ccccc3nc2NS(=O)(=O)c2ccc(F)cc2)cc(OC)c1	10000	400	10000
CC(=O)Nc1nc2ccc(-c3nn(Cc4cc5ccccc5nc4N4CCN(C)CC4)c4ncnc(N)c34)cc2s1	23	788	185

— ChEMBL document CHEMBL1212808, “The p110 delta structure: mechanisms for selectivity and potency of new PI(3)K inhibitors” (Nat Chem Biol, 2010)
